The text below walks through data of patent publication US12714725B2, “Stabilization of selenite in a nutritional solution by dissolved oxygen” (BAXTER INTERNATIONAL INC., priority 2019, dated 2026).

A short description of data set [1]: Full factorial DoE on the stability of Selenite (container material, pH, sterilization, storage temperature, dissolved oxygen). It counts as physicochemical. As to the method:
A full factorial DoE was designed to evaluate the impact of five factors on the stability of Selenite:
Container material: an interaction between Selenite and plastic bags material was previously highlighted. To evaluate this factor a neutral material i.e. glass bottles was used as a comparison to plastic bags.
pH of the solution: all previous studies were conducted at pH<3.5 to ensure stability of Fe. A comparison with a native pH>7 obtained by simple dilution of Selenite into MilliQ water allowed to evaluate the impact of this parameter.
Sterilization: the terminal heat sterilization conducted on samples may initiate degradative chemical reactions by heat exposure. Unsterilized VS sterilized samples were compared regarding Selenite stability to assess the impact of this process step.
Storage temperature: accelerated stability studies are classically conducted at 40° C. However, selenite might be sensitive to it and a comparison with samples stored at 5° C. was conducted.
Dissolved oxygen content: oxygen is involved in many redox reactions most of the time deleterious for macro and micronutrients (particularly vitamins). To assess the impact of this parameter on Selenite stability, solutions of Selenite were flushed either with oxygen (up to saturation at about 8 ppm) or with nitrogen (DO<0.5 ppm).
All combinations of factors were produced and stored under appropriate conditions for 6 months. They were then submitted to several tests to evaluate the impact of each factor on several responses.
The following readouts were performed in order to assess the impact of the factors listed above:
Se assay to evaluate the degradation of Selenium.
Visual inspection of the samples to detect any precipitate, particles or discoloration.
pH measurement to evaluate the evolution of sample pH after 6 months storage.
Dissolved oxygen measurement to evaluate the evolution of the dissolved oxygen after 6 months of storage. […]

Data set [2] can be described thus: Stability of a mix of the 9 TE at pH 2.2 with 200 mM malic acid in a glass bottle. It counts as physicochemical. To be noted: heat sterilized, about 3 ppm dissolved oxygen; for Concentration recovered, T6 M 5° C. / Percentage of the recovered TE, T6 M 5° C.: 6 months at 5° C.; for Concentration recovered, T6 M 5° C. / Concentration recovered, T6 M 40° C.: pH 2.2, 200 mM malic acid; for Percentage of the recovered TE, T6 M 5° C. / Percentage of the recovered TE, T6 M 40° C.: relative to theoretical concentration; for Concentration recovered, T6 M 40° C. / Percentage of the recovered TE, T6 M 40° C.: 6 months at 40° C. As to the method: The presence of oxygen promotes selenite stability. To ensure that it is not deleterious to another TE the stability of a mix of the 9 TE of interest (i.e. Zn, Cu, Cr, Mo, Mn, Fe, I, F & Se) was evaluated at pH 2.2 with 200 mM of malic acid (to ensure Iodide stability) and stored in a glass bottle (so containing about 3 ppm of dissolved oxygen). The solution was heat sterilized and stored 6 months at 40° C. or 5° C. (T6M 40° C. and T6M 5° C., respectively).

For data set [3] the following is noted: cited from earlier work.

The structures appear in SMILES notation.

As to `O=[Se](O)O` [Selenite, sodium selenite], the Stability in solution entry is “instable” in data set [1] (absence of stable amount of DO in the said range, storage for more than 1-3 months) and “stable” in data set [1] (products with stable DO concentration of above 0.5 ppm, specifically 0.5 ppm to 8 ppm). For the same compound, the “Oxygen amount sufficient to ensure the stability of Selenite in solution” value in data set [1] (regression of Se assay against log dissolved oxygen, sterilized samples stored at 40° C. (FIG. 2)) is recorded as “around 0.5 ppm”.

In the case of `[Na+].[Na+].[O]=[Mo](=[O])([O-])[O-]` [Mo, sodium molybdate], in data set [2], the “Concentration recovered, T6 M 5° C.” value came to 0.653 µg/mL; the “Percentage of the recovered TE, T6 M 5° C.” value (“Percentage … T6 M 5° C.” below) is given as 79.9%; the “Concentration recovered, T6 M 40° C.” value was 0.707 µg/mL; the “Percentage of the recovered TE, T6 M 40° C.” value (“Percentage … T6 M 40° C.” for short) was 86.6%.

Take `[F-].[Na+]` [F, sodium fluoride]: in data set [2], the “Percentage … T6 M 5° C.” value turned out to be 94% and the “Percentage … T6 M 40° C.” value turned out to be 88%.

`[I-].[K+]` [I, potassium iodide]: in data set [2], the “Concentration recovered, T6 M 5° C.” value worked out at 3.167 µg/mL; the “Percentage … T6 M 5° C.” value is recorded as 78.6%; the “Concentration recovered, T6 M 40° C.” value turned out to be 3.401 µg/mL; the “Percentage … T6 M 40° C.” value came to 84.4%.

On to `[Cl-].[Cl-].[Zn+2]` [Zn, zinc chloride], for which the “Chemical form; Solubility in water” value in data set [3] is 4.32 kg/L. Besides, in data set [2], the “Concentration recovered, T6 M 5° C.” value worked out at 158.347 µg/mL; the “Percentage … T6 M 5° C.” value is listed as 77.8%; the “Concentration recovered, T6 M 40° C.” value is 171.822 µg/mL; the “Percentage … T6 M 40° C.” value was found to be 84.4%.

Regarding `[Cl][Cu][Cl]` [Cu, copper chloride], the “Chemical form; Solubility in water” value in data set [3] was 706 mg/mL. Besides, in data set [2], the “Concentration recovered, T6 M 5° C.” value came out at 9.784 µg/mL; the “Percentage … T6 M 5° C.” value is 81.1%; the “Concentration recovered, T6 M 40° C.” value was determined as 10.504 µg/mL; the “Percentage … T6 M 40° C.” value turned out to be 87.1%.

Consider `[Cl][Cr]([Cl])[Cl]` [Cr, chromium chloride], for which the “Chemical form; Solubility in water” value in data set [3] was 585 mg/mL. Also, in data set [2], the “Concentration recovered, T6 M 5° C.” value was determined as 0.306 µg/mL; the “Percentage … T6 M 5° C.” value worked out at 77.3%; the “Concentration recovered, T6 M 40° C.” value stood at 0.329 µg/mL; the “Percentage … T6 M 40° C.” value turned out to be 83.1%.
